Laboratory results reported in US20250059231A1, “Protease inhibitors” (priority 2021, published 2025).
“Also recorded” adds a separate entry of the source. Where a SMILES comes first, the peptide text is derived from it. The star is where a group is joined. Palmitoyl = CCCCCCCCCCCCCCCC(=O)*

Tests used:
DENV protease = target: T1, DENV protease (Dengue virus type 2, UniProt P29990); test: biochemical; settings: for inhibition at 50 µM: read-out: inhibition of DENV
T1 construct: The virus-encoded dengue protease comprises the amino-terminal 180 amino acids of NS3 (NS3pro) of the polyprotein
T1 sequence (P29990 1398-1437): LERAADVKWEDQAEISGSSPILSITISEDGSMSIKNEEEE
T1 sequence (P29990 1476-1653): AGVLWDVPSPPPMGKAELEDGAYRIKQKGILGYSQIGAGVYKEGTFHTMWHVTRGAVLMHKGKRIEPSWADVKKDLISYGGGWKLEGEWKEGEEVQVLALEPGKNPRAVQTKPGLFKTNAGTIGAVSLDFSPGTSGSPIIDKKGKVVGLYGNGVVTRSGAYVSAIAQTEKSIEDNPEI
How it was run: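 DENV protease (100 nM) was pre-incubated 15 min with inhibitors in 50 mM Tris-HCl pH 9.0, 10% ethylene glycol, 0.0016% Brij 58. FRET substrate (50 μM final) started the reaction, monitored 15 min as RFU/s slope. IC50 came from triplicate means versus concentration.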

[1] = system: Dengue virus 2 (DENV2, ATCC VR-1584); test: DENV2 infection in AG129 mice: viral load in plasma (plaque assay); type: in vivo; settings: b.i.d
Procedure: The purpose of this study was to determine the efficacy of the compounds on Dengue virus 2 (DENV2, ATCC® VR-1584™) infection in AG129 mice.
Six groups of AG129 mice, 6-8 weeks old, with 9 mice per group were used to test compounds according to table 3.1.1. Animal room environment was monitored for temperature and relative humidity twice per day. The temperature range was 22° C.±3° C. and humidity range was 30-70%. The animals were provided with 12 hours light and 12 hours darkness. Feed and drinking water was provided ad libitum. Compounds 43 and 113 were tested.
Twenty-four hours post treatment (Day 0), animals were injected intraperitoneally (IP) with 0.2 ml of virus suspension (˜5×10^7/animal).
(§1) Administration of compounds and vehicle to animals started twenty four hours before infection (Day −1). Animals were treated daily (From Day-1 to day 4) as per the experimental design shown below in table 3.1.5. Animals were monitored for general clinical signs, morbidity and mortality. Body weights were measured daily.
Blood was collected on days-1, 0, 1, 2, 3, 4 to 5.
(§2) BHK-21 cells were cultured to approximately 80% confluency in 24-well plates (NUNC, NY, USA). Plasma samples were 10-fold serially diluted in RPMI 1640 (GIBCO). BHK-21 monolayers were infected with 100 μl of each virus dilution. After incubation at 37° C. and 5% CO2 atmosphere for one hour with rocking at 15 min intervals, the medium was decanted and 1 ml of 1% (w/v)carboxymethyl cellulose in RPMI supplemented with 2% FCS was added to each well. After four days incubation at 37° C. in 5% CO2, the cells were fixed with 4% paraformaldehyde and stained for 30 min with […] of 1% crystal violet dissolved in 37% formaldehyde. After thorough rinsing with water, plates were dried and the plaques were scored visually.
(§3) The Mean±SD Log10PFU/ml, relative Mean±SD spleen weight, Mean±SD biomarker concentrations were estimated in each group. Significant differences between group means and control were analyzed by one-way ANOVA, followed by a Dunnett's multiple comparison test, using GraphPad Prism 5 at 95% confidence levels. A p value of <0.05 was considered as significant.

TNF alpha = test: DENV2 infection in AG129 mice: plasma TNF alpha (ELISA); type: in vivo; settings: 10 mg/kg I.P, b.i.d; n = 9; vs vehicle control
Procedure: as §1
Cytokine levels (TNF alpha, IL-6 and IL-12) in plasma samples were measured using Enzyme-Linked Immunosorbent Assay (ELISA). Mouse TNF alpha ELISA Kit (Abcam: ab208348), Mouse IL-6 ELISA Kit (Abcam: ab100712), and Mouse IL-12 p40+IL-12 p70 ELISA Kit (Abcam: ab100699) were used to estimate TNF alpha, IL-6 and IL-12, respectively. The assays were performed according to the manufacturer's instructions and was analysed on a TECAN-NanoQuant Plate™ system.
as §3

dengue virus = test: In vivo assay using subcutaneous vs intraperitoneal administration, plaque assay in mouse plasma; parameters: species or system mice; settings: for therapeutic efficacy by plaque assays in mouse plasma through the treatment period / plaque assay in mouse plasma: 20 mg/kg (5h post infection); for efficacy against dengue virus infection after subcutaneous administration: subcutaneous vs other routes of administration, mice
Procedure: FIG. 5B-viral load (plaque assay) in plasma of mice following treatment with vehicle or with compound 113 (20 mg/kg, b.i.d. IP and SC starting at 5h post-infection). Error bars are Mean±SEM.
as §2
These studies were largely performed as in Example 17, with a difference found in the administration of compounds of the invention. […] In this example the compounds of the invention are administered using subcutaneous administration, and compound 113 was used as exemplary for compounds according to the invention.
Results are shown in the table below, where compounds were used at 20 mg/kg (5h post infection). Antiviral activity is much improved after subcutaneous administration, with a longer lasting effect.

WNV protease = target: T2, WNV protease (West Nile virus, UniProt P06935); test: WNV protease assay (analogous procedure); type: biochemical; settings: read-out: IC50 for WNNV
T2 construct: a trypsin-like serine protease domain in the N-terminal region of the flaviviral NS3 proteins
T2 sequence (P06935 1424-1463): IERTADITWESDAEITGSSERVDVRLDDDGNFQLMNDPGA
T2 sequence (P06935 1502-1679): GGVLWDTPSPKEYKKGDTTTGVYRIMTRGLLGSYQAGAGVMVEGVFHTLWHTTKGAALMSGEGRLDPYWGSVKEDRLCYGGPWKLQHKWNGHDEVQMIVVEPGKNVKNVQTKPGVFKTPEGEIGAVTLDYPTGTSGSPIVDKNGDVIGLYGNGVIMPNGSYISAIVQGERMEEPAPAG

SMILES | inhibition at 50 µM (DENV protease) [%] | inhibition of DENV protease (in words) (DENV protease; biochemical and cellular infection assays) | Mean + SD Log10PFU/ml Plasma ([1]; Day 2, 10 mg/kg I.P) [Log10PFU/ml] | Mean + SD Log10PFU/ml Plasma ([1]; Day 2, 20 mg/kg I.P) [Log10PFU/ml] | Mean + SD Log10PFU/ml Plasma ([1]; Day 4, 10 mg/kg I.P) [Log10PFU/ml] | Mean + SD Log10PFU/ml Plasma ([1]; Day 5, 10 mg/kg I.P) [Log10PFU/ml] | Mean + SD Log10PFU/ml Plasma ([1]; Day 5, 20 mg/kg I.P) [Log10PFU/ml] | Plasma concentration of TNF-alpha in mouse plasma after treatment (TNF alpha) | therapeutic efficacy by plaque assays in mouse plasma through the treatment period (dengue virus) | plaque assay in mouse plasma (dengue virus; Day 3, IP) | plaque assay in mouse plasma (dengue virus; Day 3, SC) | plaque assay in mouse plasma (dengue virus; Day 4, IP) | plaque assay in mouse plasma (dengue virus; Day 4, SC) | efficacy against dengue virus infection after subcutaneous administration (dengue virus) | IC50 (WNV protease) [µM]
CCCCCCCCCCCCCCCC(=O)N[C@@H](CCCCN)CC(=O)N[C@@H](C)C(=O)N[C@@H](C)CC(=O)N[C@H](CCCCN)C(N)=O (stereo in doubt) [compound 113] | ≥ 25 | potent and specific inhibition | 3.79 ± 0.10 | 3.07 ± 0.28 | 4.65 ± 0.08 | 3.66 ± 0.11 | 3.77 ± 0.11 | 25.99 ± 9.19 | good therapeutic efficacy | 4.70 ± 0.75 | 3.58 ± 0.34 | 4.23 ± 0.52 | 3.26 ± 0.49 | great efficacy; also recorded: improved efficacy | ≤ 40
CCCCCCCCCCCCCCCC(=O)N[C@@H](CCCNC(=N)N)C(=O)N[C@@H](CCC(N)=O)C(=O)N[C@@H](Cc1ccccc1)C(N)=O [compound 43] (Palmitoyl-Arg-Gln-Phe-NH2) | ≥ 25 | – | 3.36 ± 0.41 | 3.48 ± 0.25 | – | 3.28 ± 0.21 | 3.06 ± 0.31 | 32.45 ± 12.30 | good therapeutic efficacy | 4.32 ± 0.45 | 3.43 ± 0.304 | 4.38 ± 0.41 | 3.34 ± 0.40 | great efficacy | ≤ 40
